Measurements: patent publication US20240308991A1, “PROCESS FOR THE SYNTHESIS OF REACTIVE CAR[…] ANTIGEN […] C[…] A CARRIER MATERIAL” (KORANEX CAPITAL, priority 2021, published 2024)

melting point: 230 to 232 °C
Compound: C=CCO[C@H]1O[C@H](CO)[C@H](O)[C@H](O[C@@H]2O[C@H](CO)[C@H](O)[C@H](O)[C@H]2O)[C@H]1NC(C)=O
